# Assay: Human HepG2 cell viability assay in 384 well format
# Type: toxicity, cell-based
# Set-up: dose 125 nL, time 70.5 hour; concentration not given beside the values
# Conditions: HepG2 cells, read-out: Inhibition
row,Structure (SMILES),cytotoxicity at 70.5 h
1,O=S(=O)(NCc1ccccc1Cn1cncn1)N1CCCCC1,-10.7%
2,O=C(CC1CCCO1)NCCc1ccc(Br)cc1F (centres undefined),-5.5%
3,c1ccc(-c2nnc(CNC3CCCN(c4cccnn4)C3)o2)cc1 (centres undefined),-16.9%
4,CCOC1CC2(CCN(C(=O)COC)CC2)c2cc(C)ccc21 (centres undefined),-9.53%
5,CCC(NC(N)=O)c1ccccc1OCC(=O)N1CCCC1 (centres undefined),-10.1%
6,Cc1ccc(N2CCCC(NCC3=Cc4ccccc4OC3)C2)nn1 (centres undefined),-5.84%
7,O=C(c1ccsc1)N1CCc2c(CN3CCCC3)n[nH]c2C1,0.233%
8,CC(C)(C)c1nc(CC(=O)NC2CCN(C3CC3)C2)cs1 (centres undefined),-6.08%
9,CC(=O)NCCCn1ncc2c(C)cccc21,-10.8%
10,CN(C)C(=O)N1CC[C@@H](O)[C@@H]1Cc1ccccc1,-7.54%
11,CCC[C@@H]1CN(Cc2cc3c(cc2OC)OCO3)C[C@H]1C(=O)O,-2.47%
12,Cc1ccc(C(=O)N(C)CC(=O)Nc2cccc(C)n2)cn1,-6.04%
13,O=C(Cc1ccsc1)N1CCC2(CCCN(CC3CCOCC3)C2)C1 (centres undefined),1.53%
14,CC(=O)N1CCC[C@@H](NCc2c[nH]c3ccccc23)[C@@H]1c1ccc(C)s1,-8.53%
15,NC1CCCc2c1cnn2-c1cc(F)cc(F)c1 (centres undefined),-4.65%
16,CN1CC2(CCN(C(=O)c3cn4cccnc4n3)CC2)CC1=O,39.7%
17,Cc1ccc(CNC(=O)NCC(=O)NC(C)(C)C)c(N2CCCC2)c1,-16.8%
18,O=S(=O)(Cc1ccc(F)cc1)N1CCN(CC(O)C2CC2)CC1 (centres undefined),-1.75%
19,COCC(=O)N1CCCC(C(=O)c2cnn(-c3ccc(F)cc3)c2N)C1 (centres undefined),9.29%
20,CSCc1noc(CNC(=O)C2CCN(C3CCCCC3)CC2)n1,-21.4%
21,Fc1ccc(-c2noc3c2CN(CC2CC2)CC3)cc1F,-29.6%
22,COc1ccc2c(c1)C(=O)NC1(CC2)CCN(Cc2ccc(F)cc2)C1 (centres undefined),5.75%
23,COc1ccc(N2CCN(C(=O)Cn3nc(C)c(C)c3C)C(C)C2)cc1 (centres undefined),6.36%

row,Structure (SMILES),cytotoxicity at 70.5 h
1,Cn1cc(Cl)c(C(=O)N2CCC(N3CCc4ccccc4C3)CC2)n1,-6.46%
2,Cc1cccc(NC(=O)CCNCc2c(C)nn(C)c2N(C)C)n1,2.77%
3,COCc1nc(-c2ccnc(N3CCNCC3)n2)no1,2.75%
4,Cc1cc(-c2nnc(SCC(=O)O)n2C(C)c2ccccc2)nn1C (centres undefined),-0.677%
5,Cc1noc(CN(Cc2ccc3c(c2)OCO3)C2CCCC2)n1,-13%
6,COc1cc(C(C)=O)ccc1OCC(=O)N(Cc1ccsc1)C1CC1,-12%
7,CN(C)C(=O)C1CCc2nnc(CNC(=O)c3ccc(Cl)cc3Cl)n21 (centres undefined),2.11%
8,CCc1ccc(O)c(C(=O)N2CCN(CC(=O)N3CCCCC3)CC2)c1,11.8%
9,CC(C)N(C)Cc1nnn2c1CN(Cc1cccnc1)CCC2,-101%
10,Cc1cccc(C(=O)N2CCCCC2c2[nH]ncc2S(C)(=O)=O)c1 (centres undefined),-2.12%
11,Cn1cc(N2CC3(CCN(Cc4cccs4)CC3)OCC2=O)cn1,-4.87%
12,Cc1noc(C)c1CN1CCn2cc(CN3CCCC3)nc2C1,-4.15%
13,Cc1nc2ccccc2c(=O)n1CCC(=O)N1CCNC(=O)C1,-2.46%
14,CCc1ncc2c(n1)CN(CC(=O)Nc1cc(C)on1)CC2,12%
15,Cn1ccc(C(=O)N2CCN(c3cc(C#N)ccn3)CC2)cc1=O,-7.65%
16,COC(=O)c1cnc(/C=C/c2ccc(C(=O)O)cc2)s1,0.0314%
17,CC(C)C(=O)N1CC[C@@H]2[C@H](CC1)N(Cc1cccnc1)CCS2(=O)=O,2.07%
18,CS(=O)(=O)N1CCOCC2(CCN(C(=O)c3cnccn3)CC2)C1,17.6%
19,Cc1csc([C@@H]2C[C@@H]3CCN(Cc4cnn(C)c4)C[C@H]3O2)n1,-8.46%
20,COc1ccc(C(=O)Nc2ccccc2-c2ccc(=O)n(C)n2)cc1,3.05%
21,O=C1CCCC2=C1C(c1ccc(F)cc1F)Nc1nonc1N2 (centres undefined),12.1%
22,CCN(CC)C(=O)c1ccc(CNc2ncc(C#N)cc2Cl)cc1,-7.7%
23,CCCNC(c1ccc(F)cc1)c1cccnc1 (centres undefined),-19.4%

row,Structure (SMILES),cytotoxicity at 70.5 h
1,CCCc1n[nH]c(C2CN(C(=O)Cn3ccccc3=O)CCO2)n1 (centres undefined),-4.93%
2,CCC(=O)c1ccc(OCC(=O)NCC2CCCO2)cc1 (centres undefined),0.0654%
3,Cc1ccc(C(C(=O)NCCc2nc(C)cc(C)n2)N(C)C)cc1 (centres undefined),-4.39%
4,Cc1nccnc1C1CCN(C(=O)C(C)C)CC1,-5.9%
5,Cc1nc(CN2CCC(c3ccnn3CCO)CC2)oc1C,1.65%
6,COc1cccc(N2CCN(C(C(=O)O)c3ccc(OC)nc3)CC2)c1 (centres undefined),-9.28%
7,CC(C)(C)c1c[nH]c([C@@H]2COCCN2C2CCC2)n1,-4.17%
8,CC(C)NC(=O)Cc1cnc(-n2cccc2)s1,-24.2%
9,c1cnc(-c2nc(CN3CCN(CC4CC4)CC3)cs2)nc1,-5.7%
10,COc1ccc(CCC(=O)NCc2cc(C)on2)cc1,8.95%
11,CC(C)CCC(=O)NC(C#N)CC(C)C (centres undefined),3.54%
12,O=C(O)C1(n2ccnc2)CCN(Cc2ccc3occc3c2)CC1,-5.96%
13,COc1ccccc1OCC(=O)NS(=O)(=O)c1ccccc1F,-0.501%
14,Cc1ccc(-c2cnc3n2CCN(C)C32CCN(CC3CC3)CC2)cc1,-1.92%
15,CC(C)C(=O)NCCNC(=O)CCOc1cccc(F)c1,-11.3%
16,CC(=O)N1CCCN(C(=O)CCc2c(C)nc3ccnn3c2C)CC1,-15.3%
17,CCc1ccc(C(N)c2cccc(S(C)(=O)=O)c2)cc1 (centres undefined),-4.78%
18,CCCNC(=O)CSc1nnc2[nH]c(=O)cc(CC)n12,11.1%
19,Cc1cnn(CC(C)NCc2ccc(OCc3nccn3C)cc2)c1 (centres undefined),-5.96%
20,CC(C)(C)S(=O)(=O)c1ccc(N2CCN(c3ccccn3)CC2)nn1,-17.1%
21,Cc1nn(-c2ccc(C(=O)O)cc2)c2c1C(C(C)C)SCC(=O)N2 (centres undefined),-2.14%
22,CC1CCCCN1CCNC(=O)c1ccn(-c2cccc(F)c2)n1 (centres undefined),-0.176%
23,N#Cc1ccc(S(=O)(=O)NC(=O)C2CC2)c(C(F)(F)F)c1,-13.8%

row,Structure (SMILES),cytotoxicity at 70.5 h
1,O=C(c1ccccn1)N1CCOC2(COCCN(Cc3cc[nH]n3)C2)C1 (centres undefined),-3.84%
2,O=C(CCS(=O)(=O)C1CCCC1)NCCc1ccc2c(c1)OCCO2,-2.36%
3,Cc1ccc(N2CCC(c3[nH]ncc3Cc3ccccc3)CC2)nn1,-10%
4,CCCN(Cc1ccc(C(=O)NCC2COCCO2)c(=O)[nH]1)C1CC1 (centres undefined),50.6%
5,COc1cc(-c2cccc3c2OC(CN)C3)cc(OC)c1OC (centres undefined),-1.4%
6,COc1cc(NC(=O)NCc2ccccn2)cc(OC)c1,8.5%
7,O=C(C1=CCCC1)N1CCC[C@]2(C[C@@H](OCc3ccncc3)CO2)C1,0.64%
8,CCOCC(=O)NCC1Cn2nnc(-c3cccc(F)c3)c2CO1 (centres undefined),-4.09%
9,Cc1ncsc1CCN(C)Cc1ccc(CO)o1,-5.5%
10,Cc1cnn(CCNCc2nnc(C3CC3)o2)c1,11.6%
11,O=C(Nc1cnccn1)[C@H]1COC[C@H]2CN(C3CCCC3)C[C@H]21,-2.04%
12,CCn1c(C2CCN(C(=O)c3cc(C4CC4)on3)CC2)nn(C)c1=O,-6.56%
13,CCn1ccc2ccnc(CC3CN(C(=O)c4cnco4)C3)c21,-6.85%
14,O=C(Nc1c(F)cccc1F)N1CC(c2nc(C3CC3)no2)C1,-6.67%
15,CCn1nc(C)c(CN(CCOC)C(=O)c2ccccc2N(C)C)c1C,-2.9%
16,Cn1c(=O)[nH]c(=O)c2cc(C(=O)N3CCCC3C3CCCC3)cnc21 (centres undefined),22.8%
17,Cc1ccc(OCCC(=O)N2CCC(c3nncn3C)CC2)c(C)c1,1.76%
18,CCn1cnnc1CNC(=O)NC(C)C(C)C (centres undefined),-17.7%
19,CS(=O)(=O)NC1(CCc2ccc(NC(=O)C3CC3)nc2)CCCCC1,15%
20,CCO[C@H]1CC[C@H]2[C@@H]1OCCN2C(=O)COc1ccccc1,27.1%
21,CCc1noc(CCC(=O)N2CCC(c3ccn[nH]3)C2)n1 (centres undefined),17.8%
22,COc1ccc(OC)c(C2CCN(C(=O)C3CCOCC3)C2)c1 (centres undefined),-6.78%
23,CCOc1ncccc1C(=O)N1CCCC1c1c(C)nn(C)c1OC (centres undefined),1.14%

row,Structure (SMILES),cytotoxicity at 70.5 h
1,COC[C@@H]1CCC[C@@]12CN(C(=O)N1CCCC1)CCO2,-12.3%
2,CCN1C[C@H]2C3(CCN(S(=O)(=O)CC)CC3)CC[C@@]2(C(=O)N(C)C)C1,-4.85%
3,CCc1n[nH]c(NC(=O)c2ccc(Cl)cn2)c1Br,-2.17%
4,CCN(CCc1nc2cc(C)ccc2[nH]1)C(=O)[C@@H](N)CCSC,-4.38%
5,N#CCCn1nc(C(F)(F)F)c2c1CCCC2,-6.63%
6,COCCOc1ccc(NC(=O)C2CCCN(C(N)=O)C2)cn1 (centres undefined),4.12%
7,CNCc1cc(C)n(-c2ccccc2OC)c1C,-5.13%
8,CCc1nsc(N2CCN(C(=O)COc3ccccc3)CC2)n1,-6.06%
9,CN(Cc1ccccc1)C(=O)Cn1nc(N2CCOCC2)ccc1=O,9.2%
10,COCCN1CCN(C(=O)C2CC=CC2)Cc2cccnc21,-12%
11,O=C(O)C1(Cc2cc(-c3ccccc3F)no2)CCOCC1,-10.6%
12,CC(C)Oc1ncccc1CNC(=O)N1CCC1c1ccccc1 (centres undefined),26.6%
13,CS(=O)(=O)N1CCC(CSc2ccccc2)C1 (centres undefined),-13.4%
14,O=C(NCC(F)(F)F)c1ccc(-n2cccn2)nn1,5.82%
15,CN(Cc1ccc(C#N)cc1)Cc1noc(C(C)(C)C)n1,-10.4%
16,CC(C)N(C)CC(=O)NC1CCc2nccn2C1 (centres undefined),17.3%
17,Cn1ccc(CNC(=O)N2CCC(C3(C)OCCO3)CC2)c1,-8.7%
18,COc1cc(N2CCC(c3nccn3Cc3ccccc3)CC2)ncn1,-1.15%
19,Cc1nsc(C(=O)NCCc2cccs2)n1,-5.79%
20,O=S(=O)(c1ccc(F)cc1)N1CC[C@H]2[C@H]1CCN2c1ncccn1,-2.97%
21,CN(Cc1ccc(Br)c2cccnc12)S(C)(=O)=O,12.8%
22,Cc1noc(C(C)C)c1C(=O)NS(=O)(=O)c1ccc(Cl)cc1,-3.31%

# From ChEMBL document CHEMBL3507680, “University of Dundee, Gates Library screen for HepG2 cell viability”
